Measurements taken from patent US9902703B2, “Somatostatin modulators and uses thereof” (Crinetics Pharmaceuticals, Inc., priority 2015, dated 2018).

Target: T1, human somatostatin receptor subtype 2 (Homo sapiens, UniProt P30874)
T1 construct: expressed in transfected cells; host or cells: CHO (Chinese hamster ovary) cells, G-418 selected
Experiment: cAMP assay (functional assay for SSTR2 agonists)
Format: cell-based
Settings: CHO cells expressing human SSTR2; intracellular cAMP with forskolin, HTRF; read-out: SSTR2a EC50
Description: Functional Assay for SSTR2 Agonists
General overview: All five SSTR subtypes are Gi coupled G-protein coupled receptors (GPCRs) that lead to decreases in intracellular cyclic AMP (cAMP) when activated by an agonist. Therefore, measurement of intracellular cAMP levels can be used to assess whether compounds of the invention are agonists of SSTR subtypes (John Kelly, Troy Stevens, W. Joseph Thompson, and Roland Seifert, Current Protocols in Pharmacology, 2005, 2.2.1-2.2). One example of an intracellular cAMP assay is described below.
One day prior to the assay, 40,000 Chinese hamster ovary (CHO) cells expressing the human somatostatin receptor subtype 2 are plated in each well of a 96-well tissue culture plate in DM-MEM growth media (Gibco) with the following additives: 10% fetal bovine serum (Gibco), 100 U/mL penicillin (Gibco), 100 ug/mL streptomycin (Gibco), 10 mM HEPES (Gibco), 1.2 mM sodium hydroxide, 0.5 mg/mL G-418 (Gibco)). The cells are cultured overnight at 37° C., 5% CO2 and 95% humidity. On the day of the assay, the media is aspirated and the cells are washed with 1× Dulbecco's phosphate buffered saline (Gibco). Next, 5 μL of assay buffer (1× Earle's Balanced Salt Solution (Gibco), 5 mM MgCl2, 10 mM HEPES, 0.1% bovine serum albumin, 0.2 mM 3-Isobutyl-1-methylxanthine (IBMX, Biomol Research Labs)) and forskolin is added. Various dilutions of the compounds of the invention are prepared in assay buffer and 5 μL of the dilutions are added to the cultured cells and incubated for 15 minutes at 37° C. […] 10 μL of lysis buffer (HRTF cAMP kit, Cisbio) containing cAMP detection and visualization antibodies are added and the assay is allowed incubate for 1-24 hours at room temperature. The intracellular cAMP concentrations are then measured using a commercially available detection kit (for example, the cAMP HTRF kit, Cisbio). The measured intracellular cAMP concentrations are plotted vs. the concentration of the compounds of the invention and the EC50 of the compounds are calculated using standard methods.

T1 sequence (P30874 whole entry): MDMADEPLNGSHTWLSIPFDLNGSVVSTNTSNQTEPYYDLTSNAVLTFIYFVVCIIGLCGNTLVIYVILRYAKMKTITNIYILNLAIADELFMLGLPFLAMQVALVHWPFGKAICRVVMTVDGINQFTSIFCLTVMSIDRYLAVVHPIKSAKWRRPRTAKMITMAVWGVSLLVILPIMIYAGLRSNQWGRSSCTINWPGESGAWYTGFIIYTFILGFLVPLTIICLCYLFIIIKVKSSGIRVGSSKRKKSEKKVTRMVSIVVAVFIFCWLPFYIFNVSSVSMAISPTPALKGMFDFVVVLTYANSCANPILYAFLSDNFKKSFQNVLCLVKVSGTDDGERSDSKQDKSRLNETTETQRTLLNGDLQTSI

Row | Compound | EC50 [nM]
1 | CC[C@H](N)CN(C)C(=O)C1c2cc(-c3cc(O)ccc3C)c(Cl)cc2N=CN1c1cc(C)cc(C)c1 (stereo partly drawn) [Compound 1-8, N-[(2S)-2-aminobutyl]-7-chloro-3-(3,5-dimethylphenyl)-6-(5-hydroxy-2-methylphenyl)-N-methyl-3,4-dihydroquinazoline-4-carboxamide] | < 100
2 | Cc1cc(Cl)cc(N2C=Nc3cc(C)c(-c4cccc(O)c4)cc3C2C(=O)N(C)C[C@@H]2CCCN2)c1 (stereo partly drawn) [Compound 1-17, 3-(3-chloro-5-methylphenyl)-6-(3-hydroxyphenyl)-N,7-dimethyl-N-[(2S)-pyrrolidin-2-ylmethyl]-3,4-dihydroquinazoline-4-carboxamide] | < 100
3 | Cc1cc(Cl)cc(N2C=Nc3cc(C)c(-c4cc(O)ccc4Cl)cc3C2C(=O)N(C)C[C@@H]2CCCN2)c1 (stereo partly drawn) [Compound 1-20, 6-(2-chloro-5-hydroxyphenyl)-3-(3-chloro-5-methylphenyl)-N,7-dimethyl-N-[(2S)-pyrrolidin-2-ylmethyl]-3,4-dihydroquinazoline-4-carboxamide] | < 100
4 | CC[C@H](N)CN(C)C(=O)C1c2cc(-c3cc(C)cc(O)c3)c(Cl)cc2N=CN1c1cc(C)cc(C)c1 (stereo partly drawn) [Compound 1-7, N-[(2S)-2-aminobutyl]-7-chloro-3-(3,5-dimethylphenyl)-6-(3-hydroxy-5-methylphenyl)-N-methyl-3,4-dihydroquinazoline-4-carboxamide] | < 100
5 | Cc1cc(Cl)cc(N2C=Nc3cc(C)c(-c4cc(O)ccc4Cl)cc3C2C(=O)N(C)C[C@@H]2CCCCN2)c1 (stereo partly drawn) [Compound 1-23, 6-(2-chloro-5-hydroxyphenyl)-3-(3-chloro-5-methylphenyl)-N,7-dimethyl-N-[(2S)-piperidin-2-ylmethyl]-3,4-dihydroquinazoline-4-carboxamide] | < 100
6 | Cc1cc(Cl)cc(N2C=Nc3cc(C)c(-c4cccc(C(N)=O)c4)cc3C2C(=O)N(C)C[C@@H]2CCCCN2)c1 (stereo partly drawn) [Compound 1-24, 6-(3-carbamoylphenyl)-3-(3-chloro-5-methylphenyl)-N,7-dimethyl-N-[(2S)-piperidin-2-ylmethyl]-3,4-dihydroquinazoline-4-carboxamide] | < 100
7 | CC[C@H](N)CN(C)C(=O)C1c2cc(-c3cccc(O)c3)c(C)cc2N=CN1c1cc(C)cc(C)c1 (stereo partly drawn) [Compound 1-9, N-[(2S)-2-aminobutyl]-3-(3,5-dimethylphenyl)-6-(3-hydroxyphenyl)-N,7-dimethyl-3,4-dihydroquinazoline-4-carboxamide] | < 100
8 | Cc1cc(Cl)cc(N2C=Nc3cc(Cl)c(-c4cccc(O)c4)cc3C2C(=O)N(C)C[C@@H]2CCCN2)c1 (stereo partly drawn) [Compound 1-72, 7-chloro-3-(3-chloro-5-methylphenyl)-6-(3-hydroxyphenyl)-N-methyl-N-((S)-pyrrolidin-2-ylmethyl)-3,4-dihydroquinazoline-4-carboxamide] | < 100
9 | Cc1cc(Cl)cc(N2C=Nc3cc(C)c(-c4cc(O)ccc4F)cc3C2C(=O)N(C)C[C@@H]2CCCN2)c1 (stereo partly drawn) [Compound 1-19, 3-(3-chloro-5-methylphenyl)-6-(2-fluoro-5-hydroxyphenyl)-N,7-dimethyl-N-[(2S)-pyrrolidin-2-ylmethyl]-3,4-dihydroquinazoline-4-carboxamide] | < 100
10 | Cc1cc(Cl)cc(N2C=Nc3cc(C)c(-c4cc(O)cc(C#N)c4)cc3C2C(=O)N(C)C[C@@H]2CCCN2)c1 (stereo partly drawn) [Compound 1-48, 3-(3-chloro-5-methylphenyl)-6-(3-cyano-5-hydroxyphenyl)-N,7-dimethyl-N-[(2S)-pyrrolidin-2-ylmethyl]-3,4-dihydroquinazoline-4-carboxamide] | < 100
11 | Cc1cc(Cl)cc(N2C=Nc3cc(C)c(-c4cccc(C#N)c4C)cc3C2C(=O)N(C)C[C@@H]2CCCN2)c1 (stereo partly drawn) [Compound 1-44, 3-(3-chloro-5-methylphenyl)-6-(3-cyano-2-methylphenyl)-N,7-dimethyl-N-[(2S)-pyrrolidin-2-ylmethyl]-3,4-dihydroquinazoline-4-carboxamide] | < 100
12 | CC1=Nc2ccc(-c3cc(O)ccc3Cl)cc2C(C(=O)N(C)C[C@@H]2CCCN2)N1c1cc(C)cc(Cl)c1 (stereo partly drawn) [Compound 1-27, 6-(2-chloro-5-hydroxyphenyl)-3-(3-chloro-5-methylphenyl)-N,2-dimethyl-N-[(2S)-pyrrolidin-2-ylmethyl]-3,4-dihydroquinazoline-4-carboxamide] | < 100
13 | CCN(C[C@@H]1CCCN1)C(=O)C1c2cc(-c3cccc(O)c3)c(C)cc2N=CN1c1cc(C)cc(Cl)c1 (stereo partly drawn) [Compound 1-31, 3-(3-chloro-5-methylphenyl)-N-ethyl-6-(3-hydroxyphenyl)-7-methyl-N-[(2S)-pyrrolidin-2-ylmethyl]-3,4-dihydroquinazoline-4-carboxamide] | < 100
14 | CC[C@H](N)CN(C)C(=O)C1c2cc(-c3cc(O)cc(F)c3)c(Cl)cc2N=CN1c1cc(C)cc(C)c1 (stereo partly drawn) [Compound 1-6, N-[(2S)-2-aminobutyl]-7-chloro-3-(3,5-dimethylphenyl)-6-(3-fluoro-5-hydroxyphenyl)-N-methyl-3,4-dihydroquinazoline-4-carboxamide] | < 100
15 | Cc1cc(Cl)cc(N2C=Nc3cc(C)c(-c4cccc(C#N)c4)cc3C2C(=O)N(C)C[C@@H]2CCCN2)c1 (stereo partly drawn) [Compound 1-33, 3-(3-chloro-5-methylphenyl)-6-(3-cyanophenyl)-N,7-dimethyl-N-[(2S)-pyrrolidin-2-ylmethyl]-3,4-dihydroquinazoline-4-carboxamide] | < 100

Further lines, results first:

Row | EC50 [nM] | Compound
16 | < 100 | Cc1cc(Cl)cc(N2C=Nc3cc(C)c(-c4cc(C(F)(F)F)cnc4Cl)cc3C2C(=O)N(C)C[C@@H]2CCCN2)c1 (stereo partly drawn) [Compound 2-19, 6-[2-chloro-5-(trifluoromethyl)pyridin-3-yl]-3-(3-chloro-5-methylphenyl)-N,7-dimethyl-N-[(2S)-pyrrolidin-2-ylmethyl]-3,4-dihydroquinazoline-4-carboxamide]
17 | < 100 | Cc1cc(Cl)cc(N2C=Nc3cc(C)c(-c4cncc(O)c4)cc3C2C(=O)N(C)C[C@@H]2CCCN2)c1 (stereo partly drawn) [Compound 2-10, 3-(3-chloro-5-methylphenyl)-6-(5-hydroxypyridin-3-yl)-N,7-dimethyl-N-[(2S)-pyrrolidin-2-ylmethyl]-3,4-dihydroquinazoline-4-carboxamide]
18 | < 100 | COc1cc(C#N)cc(-c2cc3c(cc2C)N=CN(c2cc(C)cc(Cl)c2)C3C(=O)N(C)C[C@@H]2CCCN2)c1 (stereo partly drawn) [Compound 2-24, 3-(3-chloro-5-methylphenyl)-6-(3-cyano-5-methoxyphenyl)-N,7-dimethyl-N-[(2S)-pyrrolidin-2-ylmethyl]-3,4-dihydroquinazoline-4-carboxamide]
19 | < 100 | Cc1cc(Cl)cc(N2C=Nc3cc(C)c(-c4cc(F)cc(C(N)=O)c4)cc3C2C(=O)N(C)C[C@@H]2CCCN2)c1 (stereo partly drawn) [Compound 2-9, 6-(3-carbamoyl-5-fluorophenyl)-3-(3-chloro-5-methylphenyl)-N,7-dimethyl-N-[(2S)-pyrrolidin-2-ylmethyl]-3,4-dihydroquinazoline-4-carboxamide]
20 | < 100 | Cc1cc(Cl)cc(N2C=Nc3cc(C)c(-c4cc(F)ccc4C)cc3C2C(=O)N(C)C[C@@H]2CCCN2)c1 (stereo partly drawn) [Compound 2-13, 3-(3-chloro-5-methylphenyl)-6-(5-fluoro-2-methylphenyl)-N,7-dimethyl-N-[(2S)-pyrrolidin-2-ylmethyl]-3,4-dihydroquinazoline-4-carboxamide]
21 | 100 to 1000 | Cc1cc(Cl)cc(N2C=Nc3cc(C)c(-c4cccc(NS(C)(=O)=O)c4)cc3C2C(=O)N(C)C[C@@H]2CCCN2)c1 (stereo partly drawn) [Compound 2-6, 3-(3-chloro-5-methylphenyl)-6-(3-methanesulfonamidophenyl)-N,7-dimethyl-N-[(2S)-pyrrolidin-2-ylmethyl]-3,4-dihydroquinazoline-4-carboxamide]
22 | < 100 | Cc1cc(Cl)cc(N2C=Nc3cc(C)c(-c4cccc(C(N)=O)n4)cc3C2C(=O)N(C)C[C@@H]2CCCN2)c1 (stereo partly drawn) [Compound 2-11, 6-(6-carbamoylpyridin-2-yl)-3-(3-chloro-5-methylphenyl)-N,7-dimethyl-N-[(2S)-pyrrolidin-2-ylmethyl]-3,4-dihydroquinazoline-4-carboxamide]
23 | < 100 | COc1ccc(C)c(-c2cc3c(cc2C)N=CN(c2cc(C)cc(Cl)c2)C3C(=O)N(C)C[C@@H]2CCCN2)c1 (stereo partly drawn) [Compound 2-4, 3-(3-chloro-5-methylphenyl)-6-(5-methoxy-2-methylphenyl)-N,7-dimethyl-N-[(2S)-pyrrolidin-2-ylmethyl]-3,4-dihydroquinazoline-4-carboxamide]
24 | 100 to 1000 | Cc1cc(Cl)cc(N2C=Nc3cc(C)c(-c4ccnc(C#N)c4)cc3C2C(=O)N(C)C[C@@H]2CCCN2)c1 (stereo partly drawn) [Compound 2-27, 3-(3-chloro-5-methylphenyl)-6-(2-cyanopyridin-4-yl)-N,7-dimethyl-N-[(2S)-pyrrolidin-2-ylmethyl]-3,4-dihydroquinazoline-4-carboxamide]
